Source: the NIST ThermoML archive (doi:10.1007/s10765-006-0056-z)

Assay: molar heat capacity at constant volume; xn = mol fraction of the nth substance listed
Settings: x1 = 0.095

CCCCCCCCCC [decane] + O=C=O
Settings | molar heat capacity at constant volume [J/K/mol]
339.76 K, Fluid (supercritical or subcritical phases), Mass density=658.8 kg/m3, Isochoric Heat Capacity Apparatus | 341.25
339.76 K, Liquid, iso | 405.37
339.81 K, Fluid (supercritical or subcritical phases), Mass density=658.8 kg/m3, Isochoric Heat Capacity Apparatus | 339.06
340.21 K, Fluid (supercritical or subcritical phases), Mass density=658.8 kg/m3, Isochoric Heat Capacity Apparatus | 339.7
340.44 K, Fluid (supercritical or subcritical phases), Mass density=658.8 kg/m3, Isochoric Heat Capacity Apparatus | 339.06
341.36 K, Fluid (supercritical or subcritical phases), Mass density=658.8 kg/m3, Isochoric Heat Capacity Apparatus | 337.04
342.32 K, Fluid (supercritical or subcritical phases), Mass density=658.8 kg/m3, Isochoric Heat Capacity Apparatus | 337.68
348.73 K, Fluid (supercritical or subcritical phases), Mass density=658.8 kg/m3, Isochoric Heat Capacity Apparatus | 325.41
352.09 K, Fluid (supercritical or subcritical phases), Mass density=622.7 kg/m3, Isochoric Heat Capacity Apparatus | 341.73
352.09 K, Liquid, iso | 393.1
352.5 K, Fluid (supercritical or subcritical phases), Mass density=622.7 kg/m3, Isochoric Heat Capacity Apparatus | 340.82
352.9 K, Fluid (supercritical or subcritical phases), Mass density=622.7 kg/m3, Isochoric Heat Capacity Apparatus | 339.06
354.63 K, Fluid (supercritical or subcritical phases), Mass density=622.7 kg/m3, Isochoric Heat Capacity Apparatus | 337.04
362.18 K, Fluid (supercritical or subcritical phases), Mass density=658.8 kg/m3, Isochoric Heat Capacity Apparatus | 313.14
364 K, Fluid (supercritical or subcritical phases), Mass density=622.7 kg/m3, Isochoric Heat Capacity Apparatus | 323.65
368.53 K, Fluid (supercritical or subcritical phases), Mass density=574.1 kg/m3, Isochoric Heat Capacity Apparatus | 365.42
368.53 K, Liquid, iso | 393.1
368.83 K, Fluid (supercritical or subcritical phases), Mass density=574.1 kg/m3, Isochoric Heat Capacity Apparatus | 364.08
369.77 K, Fluid (supercritical or subcritical phases), Mass density=574.1 kg/m3, Isochoric Heat Capacity Apparatus | 359.39
371.23 K, Fluid (supercritical or subcritical phases), Mass density=658.8 kg/m3, Isochoric Heat Capacity Apparatus | 303.75
380.81 K, Fluid (supercritical or subcritical phases), Mass density=622.7 kg/m3, Isochoric Heat Capacity Apparatus | 305.78
383.81 K, Fluid (supercritical or subcritical phases), Mass density=534.8 kg/m3, Isochoric Heat Capacity Apparatus | 350.91
384.11 K, Fluid (supercritical or subcritical phases), Mass density=534.8 kg/m3, Isochoric Heat Capacity Apparatus | 347.55
385.02 K, Fluid (supercritical or subcritical phases), Mass density=574.1 kg/m3, Isochoric Heat Capacity Apparatus | 318.95
385.79 K, Fluid (supercritical or subcritical phases), Mass density=534.8 kg/m3, Isochoric Heat Capacity Apparatus | 348.67
387.65 K, Fluid (supercritical or subcritical phases), Mass density=534.8 kg/m3, Isochoric Heat Capacity Apparatus | 339.49
393.22 K, Fluid (supercritical or subcritical phases), Mass density=509.4 kg/m3, Isochoric Heat Capacity Apparatus | 349.31
393.66 K, Fluid (supercritical or subcritical phases), Mass density=622.7 kg/m3, Isochoric Heat Capacity Apparatus | 307.11
394.42 K, Fluid (supercritical or subcritical phases), Mass density=509.4 kg/m3, Isochoric Heat Capacity Apparatus | 339.06
395.94 K, Fluid (supercritical or subcritical phases), Mass density=509.4 kg/m3, Isochoric Heat Capacity Apparatus | 340.82
397.67 K, Fluid (supercritical or subcritical phases), Mass density=498 kg/m3, Isochoric Heat Capacity Apparatus | 351.12
397.78 K, Fluid (supercritical or subcritical phases), Mass density=574.1 kg/m3, Isochoric Heat Capacity Apparatus | 312.23
398.32 K, Fluid (supercritical or subcritical phases), Mass density=498 kg/m3, Isochoric Heat Capacity Apparatus | 353.09
399.4 K, Fluid (supercritical or subcritical phases), Mass density=498 kg/m3, Isochoric Heat Capacity Apparatus | 343.97
401.33 K, Fluid (supercritical or subcritical phases), Mass density=534.8 kg/m3, Isochoric Heat Capacity Apparatus | 323.65
403.37 K, Fluid (supercritical or subcritical phases), Mass density=574.1 kg/m3, Isochoric Heat Capacity Apparatus | 314.26
404.76 K, Fluid (supercritical or subcritical phases), Mass density=509.4 kg/m3, Isochoric Heat Capacity Apparatus | 325.19
404.98 K, Fluid (supercritical or subcritical phases), Mass density=477.6 kg/m3, Isochoric Heat Capacity Apparatus | 347.33
405.41 K, Fluid (supercritical or subcritical phases), Mass density=477.6 kg/m3, Isochoric Heat Capacity Apparatus | 344.18
406.9 K, Fluid (supercritical or subcritical phases), Mass density=534.8 kg/m3, Isochoric Heat Capacity Apparatus | 319.59
407.33 K, Fluid (supercritical or subcritical phases), Mass density=477.6 kg/m3, Isochoric Heat Capacity Apparatus | 339.28
410.31 K, Fluid (supercritical or subcritical phases), Mass density=509.4 kg/m3, Isochoric Heat Capacity Apparatus | 327.43
410.94 K, Fluid (supercritical or subcritical phases), Mass density=498 kg/m3, Isochoric Heat Capacity Apparatus | 327.01
411.47 K, Fluid (supercritical or subcritical phases), Mass density=574.1 kg/m3, Isochoric Heat Capacity Apparatus | 311.32
416.01 K, Fluid (supercritical or subcritical phases), Mass density=477.6 kg/m3, Isochoric Heat Capacity Apparatus | 330.31
416.64 K, Fluid (supercritical or subcritical phases), Mass density=509.4 kg/m3, Isochoric Heat Capacity Apparatus | 321.62
422.51 K, Fluid (supercritical or subcritical phases), Mass density=498 kg/m3, Isochoric Heat Capacity Apparatus | 321.62
423.55 K, Fluid (supercritical or subcritical phases), Mass density=509.4 kg/m3, Isochoric Heat Capacity Apparatus | 319.59
428.94 K, Fluid (supercritical or subcritical phases), Mass density=477.6 kg/m3, Isochoric Heat Capacity Apparatus | 321.41
432.24 K, Fluid (supercritical or subcritical phases), Mass density=509.4 kg/m3, Isochoric Heat Capacity Apparatus | 320.07
434.61 K, Fluid (supercritical or subcritical phases), Mass density=398.3 kg/m3, Isochoric Heat Capacity Apparatus | 344.61
434.91 K, Fluid (supercritical or subcritical phases), Mass density=398.3 kg/m3, Isochoric Heat Capacity Apparatus | 342.64
436.96 K, Fluid (supercritical or subcritical phases), Mass density=398.3 kg/m3, Isochoric Heat Capacity Apparatus | 343.06
437.68 K, Fluid (supercritical or subcritical phases), Mass density=498 kg/m3, Isochoric Heat Capacity Apparatus | 321.19
438.19 K, Fluid (supercritical or subcritical phases), Mass density=509.4 kg/m3, Isochoric Heat Capacity Apparatus | 318.05
440.43 K, Fluid (supercritical or subcritical phases), Mass density=534.8 kg/m3, Isochoric Heat Capacity Apparatus | 316.28
442.03 K, Fluid (supercritical or subcritical phases), Mass density=534.8 kg/m3, Isochoric Heat Capacity Apparatus | 316.5
442.05 K, Fluid (supercritical or subcritical phases), Mass density=498 kg/m3, Isochoric Heat Capacity Apparatus | 321.19
442.66 K, Fluid (supercritical or subcritical phases), Mass density=477.6 kg/m3, Isochoric Heat Capacity Apparatus | 322.31
442.88 K, Fluid (supercritical or subcritical phases), Mass density=498 kg/m3, Isochoric Heat Capacity Apparatus | 321.19
